What was measured:
Format in all cases: in vivo
[1] = test system: Abutilon theophrasti (ABUTH); assay: Glasshouse adjuvant test with nicosulfuron (Example 2); conditions: nicosulfuron 30 or 60 g/ha, adjuvant 0.2% v/v, 200 l/ha; leaf area killed; mean over two rates, three replicates, 7, 14 and 21 days
Procedure: (§1) Compound No. 2 (see Example 1 and Table 1 above) was tested in a glasshouse against four weed species in combination with the herbicide nicosulfuron. An agrochemical composition was prepared containing 0.2% v/v of the adjuvant in a track sprayer and was applied at a volume of 200 liters per hectare. Nicosulfuron was applied at either 30 or 60 grams of pesticide per hectare on weeds which had been grown to the 1.3 or 1.4 leaf stage. The weed species were Chenopodium album (CHEAL), Abutilon theophrasti (ABUTH), […] (BRAPP), and Digitaria sanguinalis (DIGSA).
(§2) Each spray test was replicated three times. The efficacy of the herbicide was assessed visually and expressed as a percentage of the leaf area killed. Samples were assessed at time periods of 7, 14 and 21 days. following application. The results shown in Table 2 below are mean averages over the two rates of nicosulfuron, three replicates and the three assessment timings.

[2] = test system: Brassica perenni (BRAPP); assay: as above; conditions: nicosulfuron 30 or 60 g/ha, adjuvant 0.2% v/v, 200 l/ha; leaf area killed; mean over two rates, three replicates, 7, 14 and 21 days
Procedure: as §1, §2

[3] = test system: Chenopodium album (CHEAL); assay: as above; conditions: nicosulfuron 30 or 60 g/ha, adjuvant 0.2% v/v, 200 l/ha; leaf area killed; mean over two rates, three replicates, 7, 14 and 21 days
Procedure: as §1, §2

[4] = test system: Digitaria sanguinalis (DIGSA); assay: as above; conditions: nicosulfuron 30 or 60 g/ha, adjuvant 0.2% v/v, 200 l/ha; leaf area killed; mean over two rates, three replicates, 7, 14 and 21 days
Procedure: as §1, §2

[5] = test system: four weed species (CHEAL, ABUTH, BRAPP, DIGSA); assay: Glasshouse adjuvant test with nicosulfuron (Example 2), mean of species
Procedure: as §1, §2

[6] = test system: Abutilon theophrasti (ABUTH); assay: Glasshouse adjuvant test with fomesafen (Example 3); conditions: fomesafen 60 or 120 g/ha, adjuvant 0.2% v/v or none, 200 l/ha; leaf area killed; mean over two rates, six replicates, 7 and 14 days
Procedure: (§3) Compound No. 2 was tested in a glasshouse against four weed species in combination with the herbicide fomesafen. An agrochemical composition was prepared containing 0.2% v/v of the adjuvant in a track sprayer and was applied at a volume of 200 liters per hectare. Fomesafen was applied at either 60 or 120 grams of pesticide per hectare on weeds which had been grown to the 1.3 or 1.4 leaf stage. The weed species were Chenopodium album (CHEAL), Abutilon theophrasti (ABUTH), Setaria viridis (SETVI), and Xanthium strumarium (XANST).
(§4) Each spray test was replicated six times. The efficacy of the herbicide was assessed visually and expressed as a percentage of the leaf area killed. Samples were assessed at time periods of 7 and 14 days following application. The results shown in Table 3 below are mean averages over the two rates of fomesafen, six replicates and the two assessment timings, and are compared to the efficacy of fomesafen in the absence of adjuvant.

[7] = test system: Chenopodium album (CHEAL); assay: as above; conditions: fomesafen 60 or 120 g/ha, adjuvant 0.2% v/v or none, 200 l/ha; leaf area killed; mean over two rates, six replicates, 7 and 14 days
Procedure: as §3, §4

[8] = test system: Setaria viridis (SETVI); assay: as above; conditions: fomesafen 60 or 120 g/ha, adjuvant 0.2% v/v or none, 200 l/ha; leaf area killed; mean over two rates, six replicates, 7 and 14 days
Procedure: as §3, §4

[9] = test system: Xanthium strumarium (XANST); assay: as above; conditions: fomesafen 60 or 120 g/ha, adjuvant 0.2% v/v or none, 200 l/ha; leaf area killed; mean over two rates, six replicates, 7 and 14 days
Procedure: as §3, §4

[10] = test system: four weed species (ABUTH, CHEAL, SETVI, XANST); assay: Glasshouse adjuvant test with fomesafen (Example 3), mean across species; conditions: fomesafen 60 or 120 g/ha, adjuvant 0.2% v/v or none
Procedure: as §3, §4

[11] = test system: Abutilon theophrasti (ABUTH); assay: Glasshouse adjuvant test with mesotrione (Example 4); conditions: mesotrione 60 or 120 g/ha, adjuvant 0.2% v/v, 200 l/ha; leaf area killed; mean over two rates, six replicates, 6, 14 and 21 days
Procedure: (§5) Compound No. 2 was tested in a glasshouse against four weed species in combination with the herbicide mesotrione. An agrochemical composition was prepared containing 0.2% v/v of the adjuvant in a track sprayer and was applied at a volume of 200 liters per hectare. Mesotrione was applied at either 60 or 120 grams of pesticide per hectare on weeds which had been grown to the 1.3 or 1.4 leaf stage. The weed species were Amaranthus retroflexus (AMARE), Abutilon theophrasti (ABUTH), Brachiaria platyphylla (BRAPP), and Digitaria sanguinalis (DIGSA).
(§6) Each spray test was replicated six times. The efficacy of the herbicide was assessed visually and expressed as a percentage of the leaf area killed. Samples were assessed at time periods of 6, 14 and 21 days following application. The results shown in Table 4 below are mean averages over the two rates of mesotrione, six replicates and the three assessment timings. The results are compared to those obtained for mesotrione in combination with the commercially available tank mix adjuvant Turbocharge® D (Syngenta Crop Protection Canada, Inc.).

[12] = test system: Amaranthus retroflexus (AMARE); assay: as above; conditions: mesotrione 60 or 120 g/ha, adjuvant 0.2% v/v, 200 l/ha; leaf area killed; mean over two rates, six replicates, 6, 14 and 21 days
Procedure: as §5, §6

[13] = test system: Brachiaria platyphylla (BRAPP); assay: as above; conditions: mesotrione 60 or 120 g/ha, adjuvant 0.2% v/v, 200 l/ha; leaf area killed; mean over two rates, six replicates, 6, 14 and 21 days
Procedure: as §5, §6

[14] = test system: Digitaria sanguinalis (DIGSA); assay: as above; conditions: mesotrione 60 or 120 g/ha, adjuvant 0.2% v/v, 200 l/ha; leaf area killed; mean over two rates, six replicates, 6, 14 and 21 days
Procedure: as §5, §6

[15] = test system: four weed species (AMARE, ABUTH, BRAPP, DIGSA); assay: Glasshouse adjuvant test with mesotrione (Example 4), mean across species; conditions: mesotrione 60 or 120 g/ha, adjuvant 0.2% v/v
Procedure: as §5, §6

CCCCCCCCCCCCc1ccc(C(=O)NCCOCCOCCOCCOCCOCCOCCOCCO)cc1 [Compound 2, 4-DODECYL-N-[2-(2-{2-[2-(2-{2-[2-(2-HYDROXY-ETHOXY)-ETHOXY]-ETHOXY}-ETHOXY)-ETHOXY]-ETHOXY}-ETHOXY)-ETHYL]-BENZAMIDE]
Mean percentage kill ABUTH [1]: 47.1%
Mean percentage kill BRAPP [2]: 86.4%
Mean percentage kill CHEAL [3]: 80%
Mean percentage kill DIGSA [4]: 83.1%
Mean percentage kill, Mean (g/ha) ([5]; nicosulfuron 30 or 60 g/ha, adjuvant 0.2% v/v, mean of the four weed species): 73.9%
weed control compared to Turbocharge D ([5]; nicosulfuron formulation with adjuvant, in each case (all four weed species)): superior weed control
Mean percentage kill ABUTH [6]: 90%
Mean percentage kill CHEAL [7]: 34.1%
Mean percentage kill SETVI [8]: 41.7%
Mean percentage kill XANST [9]: 68.8%
Mean percentage kill, Mean across species [10]: 58.6%
Mean percentage kill ABUTH [11]: 73.3%
Mean percentage kill AMARE [12]: 63.5%
Mean percentage kill BRAPP [13]: 68.2%
Mean percentage kill DIGSA [14]: 83.4%
Mean percentage kill, Mean across species [15]: 72.1%
